Consider 21 compounds from patent US5147878A, “Aminoalkoxyphenyl derivatives, process of preparation and compositions containing the same” (Sanofi, priority 1986, dated 1992).

SMILES strings stand for the structures. Structures can show the parent of a compound that is named as a salt.

This assay relates to isolated rat aorta. As to the kind of experiment: Calcium inhibitory properties: contractile response to potassium-induced depolarization on isolated rat aorta. More on the design: species or system isolated organ, male Wistar rats. Conditions: for activity at 1 µM / activity at 0.1 µM / activity at 0.01 µM / activity at 0.001 µM: Rattus norvegicus, 1 h, read-out: % of the maximum contractional effect; for % of the maximum contractional effect: 60 min; for activity at 0.001 µM: 10^-9 M. The source says: It is well established that the depolarization of a smooth muscle membrane by potassium renders the latter permeable to extracellular calcium and induces muscle contraction. Consequently, the measurement of the inhibition of the contractile response to depolarization by potassium, or the measurement of a relaxation of the tonic contraction on potassium depolarization, can represent an evaluation of the power of a compound as an inhibitor of the membrane permeability to Ca^++ ions. The technique used was as follows: The aorta was removed from male Wistar rats weighing approximately 300 g, and cut into strips approximately 40 mm long and 3 mm wide. These fragments were placed in a 25-ml isolated organ trough containing a modified Krebs-bicarbonate solution (112 mM NaCl; 5 mM KCl; 25 mM NaHCO3; 1 mM KH2 PO4; 1.2 mM MgSO4; 2.5 mM CaCl2; 11.5 mM glucose, distilled water to 1000 ml) through which a stream of 5-7% carbon dioxide in oxygen was passed, and maintained at 37° C. The preparation was connected to a force microsensor and the contractile response recorded after amplification on a recorder. A tension of 2 g was applied to the preparation. This tension was maintained for 60 minutes in the modified Krebs-bicarbonate solution, and contractions were then induced by replacing the Krebs-bicarbonate solution by a potassium-Krebs solution (17 mM NaCl; 100 mM KCl; 25 mM NaHCO3; 1 mM KH2 PO4; 1.2 mM MgSO4; 2.5 mM CaCl2; 11.5 mM glucose; distilled water to 1000 ml). When the contractile response of the preparation had become reproducible, a given amount of a compound of the invention was introduced into the bath. Sixty minutes later, a new spasm was induced by potassium depolarization. The results obtained on the aorta used in the experiment were then expressed as a percentage of the maximum contractional effect before incubation with the test substance. By way of examples, the results which follow were obtained, the compounds of formula (1) being in the form of the base, hydrochloride or oxalate.

Setting [1] is: head printed "10^-" (exponent missing; first of three columns before 10^-6 M).

Consider `CCCCN(CCCC)CCCOc1ccc(S(=O)(=O)c2ccoc2C(C)C)cc1` [Ex. 78, 2-isopropyl-3-{4-[3-(di-n-butylamino)propyloxy]benzenesulphonyl}furan oxalate], for which the activity at 1 µM (10^-6 M) was 4%. Besides, the activity at 0.1 µM (10^-7 M) worked out at 59.4%. For the same compound, the activity at 0.01 µM (10^-8 M) was found to be 90.3%.
On to `CC(C)c1occc1S(=O)(=O)c1ccc(OCCCNC(C)(C)C)cc1` [Ex. 79, 2-isopropyl-3-{4-[3-(tert-butylamino)propyloxy]benzenesulphonyl}furan oxalate], for which the activity at 1 µM (10^-6 M) turned out to be 10.3%. Also, under “10^-7 M”, the activity at 0.1 µM came out at 77.9%. Further, the activity at 0.01 µM (10^-8 M) amounted to 94.3%.
Consider `COc1ccc(CCN(C)CCCOc2ccc(Sc3cnnc4ccccc34)cc2)cc1OC` [Ex. 80, 4-[4-{3-[N-methyl-N-(3,4-dimethoxy-β-phenethyl)amino]propyloxy}phenylthio]cinnoline oxalate], for which the activity at 1 µM (10^-6 M) turned out to be 64.2%. Moreover, the activity at 0.1 µM (10^-7 M) turned out to be 85.4%. Moreover, the “% of the maximum contractional effect” value under setting [1] is 3.0%.
`COc1ccc(CCN(C)CCCOc2ccc(S(=O)(=O)c3cc4ccccc4nn3)cc2)cc1OC` [Ex. 81, 3-[4-{3-[N-methyl-N-(3,4-dimethoxy-β-phenethyl)amino]propyloxy}benzenesulphonyl]cinnoline oxalate]: for the setting “10^-6 M”, the activity at 1 µM worked out at 73.1%. The activity at 0.1 µM (10^-7 M) was 86.6%. Also, under setting [1], the “% of the maximum contractional effect” value was 19.2%.
For `COc1ccc(CCN(C)CCCOc2ccc(Sc3cc4ccccc4nn3)cc2)cc1OC` [Ex. 82, 3-[4-{3-[N-methyl-N-(3,4-dimethoxy-β-phenethyl)amio]propyloxy}phenylthio]cinnoline oxalate], for the setting “10^-6 M”, the activity at 1 µM turned out to be 55%. In addition, the activity at 0.1 µM (10^-7 M) was found to be 90.2%. Further, under setting [1], the “% of the maximum contractional effect” value is recorded as 6.7%.
For the compound `COc1ccc(CN(C)CCCOc2ccc(S(=O)(=O)c3c(C(C)C)oc4ccccc34)cc2)cc1OC` [Ex. 88, 2-isopropyl-3-[4-{3-[N-methyl-N-(3,4-dimethoxy-benzyl)amino)propyloxy}benzenesulphonyl]benzofuran acid oxalate], the activity at 0.001 µM worked out at 87%. Also, under “10^-6 M”, the activity at 1 µM stood at 8.7%. Moreover, the activity at 0.1 µM (10^-7 M) is 11.2%. For the setting “10^-8 M”, the activity at 0.01 µM came out at 61.9%.
Consider `COc1ccc(CN(C)CCOc2ccc(S(=O)(=O)c3c(C(C)C)oc4ccccc34)cc2)cc1OC` [Ex. 89, 2-Isopropyl-3-[4-{2-[N-methyl-N-(3,4-dimethoxy-benzyl)amino]ethyloxy}benzenesulphonylbenzofuran hemioxalate], for which the activity at 0.001 µM stood at 83.9%. Moreover, where the note is “10^-7 M”, the activity at 0.1 µM worked out at 4.7%. In addition, where the note is “10^-8 M”, the activity at 0.01 µM turned out to be 53.3%.
As for `COc1ccc(CCN(C)CCCOc2ccc(S(=O)(=O)c3c(C(C)C)oc4ccccc34)cc2)cc1OC.O=C(O)C(=O)O` [Ex. 90, 2-Isopropyl-3-[4-{3-[N-methyl-N-(3,4-dimethoxy-β-phenethyl)amino]propyloxy}benzenesulphonyl]benzofuran acid oxalate], the “% of the maximum contractional effect” value stood at 0% (10^-6 M, 1 µM); 21.3% (10^-7 M, 0.1 µM); 56.9% (10^-8 M, 0.01 µM).
Turning to `COc1ccc(CCN(C)CCOc2ccc(S(=O)(=O)c3c(C(C)C)oc4ccccc34)cc2)cc1OC` [Ex. 91, 2-Isopropyl-3-[4-{2-[N-methyl-N-(3,4-dimethoxy-β-phenethyl)amino]ethyloxy}benzenesulphonylbenzofuran hemioxalate], where the note is “10^-7 M”, the activity at 0.1 µM worked out at 11.1%. In addition, the activity at 0.01 µM (10^-8 M) amounted to 53.9%.
For the compound `COc1ccc(CN(C)CCCCOc2ccc(S(=O)(=O)c3c(C(C)C)oc4ccccc34)cc2)cc1OC` [Ex. 92, 2-Isopropyl-3-[4-{4-[N-methyl-N-(3,4-dimethoxy-benzyl)amino]butyloxy}benzenesulphonyl]benzofuran hemioxalate], the activity at 0.001 µM is 80.8%. Where the note is “10^-6 M”, the activity at 1 µM came to 3.8%. The activity at 0.1 µM (10^-7 M) stood at 31.5%. Further, the activity at 0.01 µM (10^-8 M) is 61%.
On to `COc1ccc(CCN(C)CCCCOc2ccc(S(=O)(=O)c3c(C(C)C)oc4ccccc34)cc2)cc1OC` [Ex. 93, 2-Isopropyl-3-[4-{4-[N-methyl-N-(3,4-dimethoxy-β-phenethyl)amino]butyloxy}benzenesulphonyl]benzofuran acid oxalate], for which the activity at 0.1 µM (10^-7 M) is 33.6%. Also, the activity at 0.01 µM (10^-8 M) is 53.1%.
On to `CC(C)c1oc2ccccc2c1S(=O)(=O)c1ccc(OCCCNCCc2ccc3c(c2)OCO3)cc1.O=C(O)C(=O)O` [Ex. 95, 2-Isopropyl-3-[4-{3-[N-[3-(1,3-benzodioxolyl)]-β-ethyl]amino]propyloxy}benzenesulphonyl benzofuran acid oxalate], for which the “% of the maximum contractional effect” value runs as follows: (10^-6 M, 1 µM) 13.6%; (10^-7 M, 0.1 µM) 50.6%; (10^-8 M, 0.01 µM) 81.4%.
In the case of `COc1ccc(CCN(C)CCCOc2ccc(S(=O)(=O)c3nccn3C(C)C)cc2)cc1OC` [Ex. 96, 1-isopropyl-2-[4-{3-[N-methyl-N-(3,4-dimethoxy-β-phenethyl)amino]propyloxy}benzenesulphonyl]imidazole dihydrochloride], the activity at 1 µM (10^-6 M) came to 92.4%. Moreover, the activity at 0.1 µM (10^-7 M) amounted to 87.3%. Besides, the “% of the maximum contractional effect” value under setting [1] was 65.8%.
`COc1ccc(CCN(C)CCCOc2ccc(S(=O)(=O)c3nccn3Cc3ccccc3)cc2)cc1OC` [Ex. 97, 1-benzyl-2-[4-{3-[N-methyl-N-(3,4-dimethoxy-β-phenethyl)amino]propyloxy}benzenesulphonyl]imidazole acid oxalate]: the activity at 1 µM (10^-6 M) came out at 66.7%. In addition, the activity at 0.1 µM (10^-7 M) came to 87.5%. For the same compound, under setting [1], the “% of the maximum contractional effect” value is listed as 23.5%.
Take `COc1ccc(CCN(C)CCCOc2ccc(S(=O)(=O)c3cn[nH]c3C(C)C)cc2)cc1OC` [Ex. 100, 4-[4-{3-[N-methyl-N-(3,4-dimethoxy-β-phenethyl)amino]propyloxy}benzenesulphonyl]-5-isopropyl-pyrazole acid oxalate]: the activity at 1 µM (10^-6 M) came out at 62.5%. In addition, the activity at 0.1 µM (10^-7 M) amounted to 87.6%. The “% of the maximum contractional effect” value under setting [1] worked out at 15.1%.
For the compound `COc1ccc(CCN(C)CCCOc2ccc(S(=O)(=O)c3ccc4ccccc4c3)cc2)cc1OC` [Ex. 103, 2-[4-{3-[N-methyl-N-(3,4-dimethoxy-β-phenethyl)amino]propyloxy}benzenesulphonyl]-naphthalene acid oxalate], the activity at 1 µM (10^-6 M) was 16.8%. For the same compound, the activity at 0.1 µM (10^-7 M) came to 62.8%. Further, where the note is “10^-8 M”, the activity at 0.01 µM amounted to 83.3%.
Take `COc1ccc(CCN(C)CCCOc2ccc(S(=O)(=O)c3c(C(C)C)[nH]c4ccccc34)cc2)cc1OC` [Ex. 105, 2-isopropyl-3-[4-{3-[N-methyl-N-(3,4-dimethoxy-β-phenethyl)amino]propyloxy}benzenesulphonyl]indole hemioxalate]: the activity at 0.001 µM came out at 83.6%. In addition, for the setting “10^-7 M”, the activity at 0.1 µM is 11.9%. Besides, the activity at 0.01 µM (10^-8 M) turned out to be 62.9%.
In the case of `CCCCN(CCCC)CCCOc1ccc(S(=O)(=O)c2c(C(C)C)[nH]c3ccccc23)cc1` [Ex. 106, 2-Isopropyl-3-{4-[3-(di-n-butylamino)propyloxy]benzenesulphonyl}indole acid], the activity at 1 µM (10^-6 M) is 4.9%. Besides, the activity at 0.1 µM (10^-7 M) was 37.4%. Moreover, the activity at 0.01 µM (10^-8 M) was 66%.
Regarding `COc1ccc(CCN(C)CCCOc2ccc(S(=O)(=O)c3c(C(C)C)n(C)c4ccccc34)cc2)cc1OC` [Ex. 109, 1-methyl-2-isopropyl-3-[4-{3-[N-methyl-N-(3,4-dimethoxy-β-phenethyl)amino]propyloxy}benzenesulphonyl]indole], the activity at 0.001 µM is 71.4%. For the same compound, the activity at 1 µM (10^-6 M) came to 0%. In addition, the activity at 0.1 µM (10^-7 M) came to 5.1%. Further, under “10^-8 M”, the activity at 0.01 µM amounted to 34.5%.
As to `CCCCN(CCCC)CCCOc1ccc(S(=O)(=O)c2c(C(C)C)n(C)c3ccccc23)cc1` [Ex. 110, 1-Methyl-2-isopropyl-3-{4-[3-(di-n-butylamino)propyloxy]benzenesulphonyl}indole acid oxalate], the activity at 0.001 µM was 84.6%. The activity at 1 µM (10^-6 M) is 0%. Further, the activity at 0.1 µM (10^-7 M) is 15.1%. The activity at 0.01 µM (10^-8 M) stood at 71%.
For `COc1ccc(CN(C)CCCOc2ccc(S(=O)(=O)c3c(C(C)C)n(C)c4ccccc34)cc2)cc1OC` [Ex. 111, 1-Methyl-2-isopropyl-3-[4-{3-[N-methyl-N-(3,4-dimethoxy-benzyl)amino]propyloxy}benzenesulphonyl]indole acid oxalate], the activity at 0.001 µM amounted to 81.8%. For the setting “10^-7 M”, the activity at 0.1 µM came out at 11.8%. Besides, the activity at 0.01 µM (10^-8 M) worked out at 25%.
